# Test system: Phosphorylation of ERK1/2 in AsPC-1 cells
# Assay: Phospho-ERK1/2 MSD Assay
# Assay type: cell-based
# Settings: Homo sapiens, ASPC1, 2 h, read-out: 2 h p-ERK (AsPC-1 cells), IC50, AsPC-1 cells, 2 h compound treatment
# Description: Sixteen hours prior to compound treatment, AsPC-1 cells were seeded in 96-well cell culture plates at a density of 25,000 cells/well and incubated at 37° C., 5% CO2. A compound dose-response titration was diluted in growth media, added to appropriate wells of a cell culture plate, and then incubated at 37° C., 5% CO2 for 2 hours.
row,IC50 [nM],SMILES
1,213,"CCc1c(F)ccc2cc(O)cc(-c3ncc4c(N5CCC[C@@](C)(N)C5)nc(OCC56CCCN5CC(F)C6)nc4c3F)c12 (stereo in doubt) [Example 46, 4-(4-((R)-3-Amino-3-methylpiperidin-1-yl)-8-fluoro-2-(((2R,7aS)-2-fluorotetrahydro-1H-pyrrolizin-7a(5H)-yl)methoxy)pyrido[4,3-d]pyrimidin-7-yl)-5-ethyl-6-fluoronaphthalen-2-ol]"

# Same assay, conditions: read-out: 2 h p-ERK (AsPC-1 cells), IC50; AsPC-1 cells, 2 h compound treatment
row,IC50 [nM],SMILES
1,2,"CCc1c(F)ccc2cc(O)cc(-c3ncc4c(N5CCCC(O)(CF)C5)nc(OC[C@@]56CCCN5C[C@H](F)C6)nc4c3F)c12 (single isomer, unassigned) [Example 171]"
2,86,"CCc1c(F)ccc2cc(O)cc(-c3ncc4c(N5CCCC(O)(CF)C5)nc(OC[C@@]56CCCN5C[C@H](F)C6)nc4c3F)c12 (single isomer, unassigned) [Example 172]"

# Biological target: His-tagged KRAS G12D protein (Homo sapiens, UniProt P01116, G12D)
# Sequence (P01116 1-188 isoform P01116-2 G12D): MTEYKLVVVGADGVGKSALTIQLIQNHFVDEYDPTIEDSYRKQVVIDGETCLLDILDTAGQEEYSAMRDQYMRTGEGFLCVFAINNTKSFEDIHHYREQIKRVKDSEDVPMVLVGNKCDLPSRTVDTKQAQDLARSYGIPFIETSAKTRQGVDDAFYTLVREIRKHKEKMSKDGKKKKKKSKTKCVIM
# Assay: biochemical
# Settings: not given
row,SMILES,IC50 [nM]
1,"C#Cc1c(F)ccc2cccc(-c3ncc4c(N5CCC[C@@](C)(O)C5)nc(OC[C@@]56CCCN5C[C@H](F)C6)nc4c3F)c12 [Example 50, (R)-1-(7-(8-Ethynyl-7-fluoronaphthalen-1-yl)-8-fluoro-2-(((2R,7aS)-2-fluorotetrahydro-1H-pyrrolizin-7a(5H)-yl)methoxy)pyrido[4,3-d]pyrimidin-4-yl)-3-methylpiperidin-3-ol]",8
2,"CCc1c(F)ccc2cc(O)cc(-c3ncc4c(N5CC6CC(O)C5C6)nc(OC[C@@]56CCCN5C[C@H](F)C6)nc4c3F)c12 (stereo partly drawn) [Example 51, 2-(7-(8-Ethyl-7-fluoro-3-hydroxynaphthalen-1-yl)-8-fluoro-2-(((2R,7aS)-2-fluorotetrahydro-1H-pyrrolizin-7a(5H)-yl)methoxy)pyrido[4,3-d]pyrimidin-4-yl)-2-azabicyclo[2.2.1]heptan-6-ol]",25
3,"CCc1cccc2cc(O)cc(-c3ncc4c(N5C6CCC5C(C)(O)CC6)nc(OC[C@@]56CCCN5C[C@H](F)C6)nc4c3F)c12 (stereo partly drawn) [Example 69, 8-(7-(8-Ethyl-3-hydroxynaphthalen-1-yl)-8-fluoro-2-(((2R,7aS)-2-fluorotetrahydro-1H-pyrrolizin-7a(5H)-yl)methoxy)pyrido[4,3-d]pyrimidin-4-yl)-2-methyl-8-azabicyclo[3.2.1]octan-2-ol]",36
4,"CCc1c(F)ccc2cc(O)cc(-c3ncc4c(N5C6CCC5C(C)(O)CC6)nc(OC[C@@]56CCCN5C[C@H](F)C6)nc4c3F)c12 (stereo partly drawn) [Example 70, 8-(7-(8-Ethyl-7-fluoro-3-hydroxynaphthalen-1-yl)-8-fluoro-2-(((2R,7aS)-2-fluorotetrahydro-1H-pyrrolizin-7a(5H)-yl)methoxy)pyrido[4,3-d]pyrimidin-4-yl)-2-methyl-8-azabicyclo[3.2.1]octan-2-ol]",32
5,"CCc1c(F)ccc2cc(O)cc(-c3ncc4c(N5CCC[C@H](C(N)=O)C5)nc(OC[C@@]56CCCN5C[C@H](F)C6)nc4c3F)c12 [Example 90, (S)-1-(7-(8-Ethyl-7-fluoro-3-hydroxynaphthalen-1-yl)-8-fluoro-2-(((2R,7aS)-2-fluorotetrahydro-1H-pyrrolizin-7a(5H)-yl)methoxy)pyrido[4,3-d]pyrimidin-4-yl)piperidine-3-carboxamide]",16
6,"CCc1c(F)ccc2cc(O)cc(-c3ncc4c(N5CCCC(c6c[nH]cn6)C5)nc(OC[C@@]56CCCN5C[C@H](F)C6)nc4c3F)c12 (stereo partly drawn) [Example 106, 4-(4-(3-(1H-Imidazol-4-yl)piperidin-1-yl)-8-fluoro-2-(((2R,7aS)-2-fluorotetrahydro-1H-pyrrolizin-7a(5H)-yl)methoxy)pyrido[4,3-d]pyrimidin-7-yl)-5-ethyl-6-fluoronaphthalen-2-ol]",10
7,"CCc1c(F)ccc2cc(O)cc(-c3ncc4c(N5CCCC(c6cnco6)C5)nc(OC[C@@]56CCCN5C[C@H](F)C6)nc4c3F)c12 (stereo partly drawn) [Example 108, 5-Ethyl-6-fluoro-4-(8-fluoro-2-(((2R,7aS)-2-fluorotetrahydro-1H-pyrrolizin-7a(5H)-yl)methoxy)-4-(3-(oxazol-5-yl)piperidin-1-yl)pyrido[4,3-d]pyrimidin-7-yl)naphthalen-2-ol]",11
8,"CCc1c(F)ccc2cc(O)cc(-c3ncc4c(N5CCCC(NS(C)(=O)=O)C5)nc(OC[C@@]56CCCN5C[C@H](F)C6)nc4c3F)c12 (stereo partly drawn) [Example 110, N-(1-(7-(8-Ethyl-7-fluoro-3-hydroxynaphthalen-1-yl)-8-fluoro-2-(((2R,7aS)-2-fluorotetrahydro-1H-pyrrolizin-7a(5H)-yl)methoxy)pyrido[4,3-d]pyrimidin-4-yl)piperidin-3-yl)methanesulfonamide]",6
9,"CCc1c(F)ccc2cc(O)cc(-c3ncc4c(N5C[C@H]6COC[C@H]6C5)nc(OC[C@@]56CCCN5C[C@H](F)C6)nc4c3F)c12 [Example 122, 5-Ethyl-6-fluoro-4-(8-fluoro-2-(((2R,7aS)-2-fluorotetrahydro-1H-pyrrolizin-7a(5H)-yl)methoxy)-4-((3aR,6aS)-tetrahydro-1H-furo[3,4-c]pyrrol-5(3H)-yl)pyrido[4,3-d]pyrimidin-7-yl)naphthalen-2-ol]",33
10,"CCc1c(F)ccc2cc(O)cc(-c3ncc4c(N5CCCC[C@H](O)C5)nc(OC[C@@]56CCCN5C[C@H](F)C6)nc4c3F)c12 [Example 130, (S)-1-(7-(8-Ethyl-7-fluoro-3-hydroxynaphthalen-1-yl)-8-fluoro-2-(((2R,7aS)-2-fluorotetrahydro-1H-pyrrolizin-7a(5H)-yl)methoxy)pyrido[4,3-d]pyrimidin-4-yl)azepan-3-ol]",4
11,"C=C1CCCN(c2nc(OC[C@@]34CCCN3C[C@H](F)C4)nc3c(F)c(-c4cc(O)cc5ccc(F)c(CC)c45)ncc23)CC1 [Example 144, 5-Ethyl-6-fluoro-4-(8-fluoro-2-(((2R,7aS)-2-fluorotetrahydro-1H-pyrrolizin-7a(5H)-yl)methoxy)-4-(4-methyleneazepan-1-yl)pyrido[4,3-d]pyrimidin-7-yl)naphthalen-2-ol]",6
12,"CCc1c(F)ccc2cc(O)cc(-c3ncc4c(N5CCCC(C)(OC)C5)nc(OC[C@@]56CCCN5C[C@H](F)C6)nc4c3F)c12 (stereo partly drawn) [Example 148, 5-Ethyl-6-fluoro-4-(8-fluoro-2-(((2R,7aS)-2-fluorotetrahydro-1H-pyrrolizin-7a(5H)-yl)methoxy)-4-(3-methoxy-3-methylpiperidin-1-yl)pyrido[4,3-d]pyrimidin-7-yl)naphthalen-2-ol]",38
13,"CCc1c(F)ccc2cc(O)cc(-c3ncc4c(N5CCCC(C#N)C5)nc(OC[C@@]56CCCN5C[C@H](F)C6)nc4c3F)c12 (stereo partly drawn) [Example 151, 1-(7-(8-Ethyl-7-fluoro-3-hydroxy-naphthalen-1-yl)-8-fluoro-2-(((2R,7aS)-2-fluorotetrahydro-1H-pyrrolizin-7a(5H)-yl)methoxy)pyrido[4,3-d]pyrimidin-4-yl)piperidine-3-carbonitrile]",11

# More lines, now with the values ahead:
row,IC50 [nM],SMILES
1,8,"CCc1c(F)ccc2cc(O)cc(-c3ncc4c(N5CCCC(c6ccn[nH]6)C5)nc(OC[C@@]56CCCN5C[C@H](F)C6)nc4c3F)c12 (stereo partly drawn) [Example 107, 4-(4-(3-(1H-Pyrazol-5-yl)piperidin-1-yl)-8-fluoro-2-(((2R,7aS)-2-fluorotetrahydro-1H-pyrrolizin-7a(5H)-yl)methoxy)pyrido[4,3-d]pyrimidin-7-yl)-5-ethyl-6-fluoronaphthalen-2-ol]"
2,12,"CCc1c(F)ccc2cc(O)cc(-c3ncc4c(N5CC=CC(O)C5)nc(OC[C@@]56CCCN5C[C@H](F)C6)nc4c3F)c12 (stereo partly drawn) [Example 109, 1-(7-(8-Ethyl-7-fluoro-3-hydroxynaphthalen-1-yl)-8-fluoro-2-(((2R,7aS)-2-fluorotetrahydro-1H-pyrrolizin-7a(5H)-yl)methoxy)pyrido[4,3-d]pyrimidin-4-yl)-1,2,3,6-tetrahydropyridin-3-ol]"
3,70,"CCc1c(F)ccc2cc(O)cc(-c3ncc4c(N5CCCC(C(C)(C)O)C5)nc(OC[C@@]56CCCN5C[C@H](F)C6)nc4c3F)c12 (stereo partly drawn) [Example 124, 5-Ethyl-6-fluoro-4-(8-fluoro-2-(((2R,7aS)-2-fluorotetrahydro-1H-pyrrolizin-7a(5H)-yl)methoxy)-4-(3-(2-hydroxypropan-2-yl)piperidin-1-yl)pyrido[4,3-d]pyrimidin-7-yl)naphthalen-2-ol]"
4,4,"CCc1c(F)ccc2cc(O)cc(-c3ncc4c(N5CCCC[C@@H](N)C5)nc(OC[C@@]56CCCN5C[C@H](F)C6)nc4c3F)c12 [Example 131, 4-(4-((R)-3-Aminoazepan-1-yl)-8-fluoro-2-(((2R,7aS)-2-fluorotetrahydro-1H-pyrrolizin-7a(5H)-yl)methoxy)pyrido[4,3-d]pyrimidin-7-yl)-5-ethyl-6-fluoronaphthalen-2-ol]"
5,14,"CCc1c(F)ccc2cc(O)cc(-c3ncc4c(N5CCCC(C)(O)CC5)nc(OC[C@@]56CCCN5C[C@H](F)C6)nc4c3F)c12 (stereo partly drawn) [Example 142, 1-(7-(8-Ethyl-7-fluoro-3-hydroxynaphthalen-1-yl)-8-fluoro-2-(((2R,7aS)-2-fluorotetrahydro-1H-pyrrolizin-7a(5H)-yl)methoxy)pyrido[4,3-d]pyrimidin-4-yl)-4-methylazepan-4-ol]"
6,16,"CCc1c(F)ccc2cc(O)cc(-c3ncc4c(N5C[C@H](O)C[C@H](C(F)(F)F)C5)nc(OC[C@@]56CCCN5C[C@H](F)C6)nc4c3F)c12 [Example 154, (3R,5S)-1-(7-(8-Ethyl-7-fluoro-3-hydroxy-naphthalen-1-yl)-8-fluoro-2-(((2R,7aS)-2-fluorotetrahydro-1H-pyrrolizin-7a(5H)-yl)methoxy)pyrido[4,3-d]pyrimidin-4-yl)-5-(trifluoromethyl) piperidin-3-ol]"
7,76,"CCc1c(F)ccc2cc(O)cc(-c3ncc4c(N5CCCC(S(=O)(=O)C(F)F)C5)nc(OC[C@@]56CCCN5C[C@H](F)C6)nc4c3F)c12 (stereo partly drawn) [Example 161, 4-(4-(3-((Difluoromethyl)sulfonyl)piperidin-1-yl)-8-fluoro-2-(((2R,7aS)-2-fluorotetrahydro-1H-pyrrolizin-7a(5H)-yl)methoxy)pyrido[4,3-d]pyrimidin-7-yl)-5-ethyl-6-fluoronaphthalen-2-ol]"
